In US9834558B2, “Substituted bridged urea analogs as sirtuin modulators” (GLAXOSMITHKLINE LLC, priority 2013, dated 2017):
Counter-ions that a name gives are not always drawn.

Target: T1, SIRT1 (Homo sapiens, UniProt Q96EB6)
T1 sequence (Q96EB6 1-747): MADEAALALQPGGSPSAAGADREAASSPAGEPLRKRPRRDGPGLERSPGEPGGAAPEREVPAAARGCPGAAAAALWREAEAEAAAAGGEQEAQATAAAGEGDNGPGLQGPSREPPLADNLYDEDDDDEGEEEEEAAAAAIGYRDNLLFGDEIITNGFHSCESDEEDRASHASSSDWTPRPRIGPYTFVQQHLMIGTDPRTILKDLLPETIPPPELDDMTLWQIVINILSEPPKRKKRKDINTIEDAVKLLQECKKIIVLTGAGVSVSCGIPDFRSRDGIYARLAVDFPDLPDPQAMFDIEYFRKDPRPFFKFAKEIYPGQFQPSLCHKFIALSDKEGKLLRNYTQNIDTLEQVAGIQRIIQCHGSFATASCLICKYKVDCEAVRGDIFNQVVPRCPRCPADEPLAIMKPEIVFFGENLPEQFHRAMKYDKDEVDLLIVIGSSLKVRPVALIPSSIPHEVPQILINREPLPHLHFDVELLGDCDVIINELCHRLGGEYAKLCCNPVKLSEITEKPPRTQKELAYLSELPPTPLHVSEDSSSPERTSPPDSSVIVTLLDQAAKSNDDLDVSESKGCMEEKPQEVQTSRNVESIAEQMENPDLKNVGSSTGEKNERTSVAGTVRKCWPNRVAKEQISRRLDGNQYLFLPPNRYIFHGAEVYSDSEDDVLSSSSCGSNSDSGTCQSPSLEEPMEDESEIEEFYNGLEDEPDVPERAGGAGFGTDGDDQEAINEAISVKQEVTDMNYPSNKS
Assay: Trp mass spectrometry assay of SIRT1 activation
Type: biochemical
Settings: for TRP Activity (EC1.5): EC1.5 = concentration that results in 150% activation of SIRT1; for Emax: read-out: TRP MAX RESP (percent maximum fold activation)
Summary of the method: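 Activation read-out: mass-spec measurement of O-acetyl-ADP-ribose or deacetylated Trp peptide versus compound-free controls, giving EC1.5 and Percent Maximum Activation. Reactions ran 25 min at 25 °C, pH 7.5, with 120 μM βNAD+, 0.5 μM acetylated p53-derived peptide and 10 nM His-tagged SIRT1.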

[1] = Trp peptide assay, maximum activity relative to control (100%)
[2] = Trp mass spectrometry assay, EC1.5 = concentration of test compound that results in 150% activation of SIRT1
[3] = Trp peptide substrate, concentration giving 150% activation of SIRT1
[4] = concentration giving 150% activation of SIRT1, Trp peptide substrate

TRP Activity (EC1.5) (Trp peptide assay)	Emax [1]	Tryp AVG EC1.5 (μM) [4]	Compound	further results
B (B (EC1.5 1-25 μM))	> 150%		O=C(Nc1ccccn1)N1c2nc(N3CCOC(C(F)(F)F)C3)ccc2N2CC[C@H]1C2 (stereo partly drawn) [(9S)-N-(pyridin-2-yl)-5-[2-(trifluoromethyl)morpholin-4-yl]-1,6,8-triazatricyclo[7.2.1.0 {2,7}]dodeca-2(7),3,5-triene-8-carboxamide]	
			O=C(Nc1ccncc1F)N1c2nc(-c3cccc(Cl)c3)ccc2N2CCC[C@H]1C2 [Example 421]	Tryp AVG EC1.5 (μM) [2]: A (A (EC1.5<1 μM))
			COc1cc(NC(=O)N2c3nc(-c4cccc(Cl)c4)ccc3N3CC[C@H]2C3)ncn1 [Example 104]	Tryp AVG EC1.5 (μM) [3]: B (B (EC1.5 1-25 μM))
		C (C (EC1.5>25 μM))	C#Cc1ccc(NC(=O)N2c3nc(-c4ccc(C5(C(F)(F)F)N=N5)cc4)ccc3N3CC[C@H]2C3)nc1 [Example 807]	
C (C (EC1.5>25 μM))	< 150%		Cc1cc(-c2ccc3c(n2)N(C(=O)N2CCO[C@@H](C)C2)[C@H]2CCN3C2)ccn1 [(9S)-8-{[(2S)-2-methylmorpholin-4-yl]carbonyl}-5-(2-methylpyridin-4-yl)-1,6,8-triazatricyclo[7.2.1.0 {2,7}]dodeca-2(7),3,5-triene hydrochloride]	
			O=C(Nc1cnccn1)N1c2nc(-c3cccc(C(F)(F)F)c3)ccc2N2CCC1CC2 [Example 472]	Tryp AVG EC1.5 (μM) [2]: A (A (EC1.5<1 μM))
A (A (EC1.5<1 μM))	> 150%		O=C(Nc1cncnc1)N1c2nc(-c3cncc(C(F)(F)F)c3)ccc2N2CCC[C@H]1C2 [(9S)-N-(pyrimidin-5-yl)-5-[5-(trifluoromethyl)pyridin-3-yl]-1,6,8-triazatricyclo[7.3.1.0 {2,7}]trideca-2(7),3,5-triene-8-carboxamide]	
			Cc1n[nH]c(C)c1-c1ccc2c(n1)N(C(=O)Nc1cccnc1)[C@H]1CCN2C1 [Example 525]	Tryp AVG EC1.5 (μM) [2]: B (B (EC1.5 1-25 μM))
		B (B (EC1.5 1-25 μM))	Cc1cncc(NC(=O)N2c3nc(-c4cncc(C(F)(F)F)c4)ccc3N3C[C@@H](O)[C@H]2C3)c1 [Example 690]	
			O=C(Nc1ccc(F)cn1)N1c2nc(N3CCCC(C(F)(F)F)C3)ccc2N2CCC[C@H]1C2 (stereo partly drawn) [Example 359]	Tryp AVG EC1.5 (μM) (Trp mass spectrometry assay, concentration of test compound giving 150% activation of SIRT1): A (A (EC1.5<1 μM))
B (B (EC1.5 1-25 μM))	> 150%		O=C(Nc1cnccn1)N1c2nc(-c3ccc(OC(F)F)nc3)ccc2N2CC[C@H]1C2 [(9S)-5-[6-(difluoromethoxy)pyridin-3-yl]-N-(pyrazin-2-yl)-1,6,8-triazatricyclo[7.2.1.0 {2,7}]dodeca-2(7),3,5-triene-8-carboxamide]	
			NCc1ccc(NC(=O)N2c3nc(-c4cccc(C(F)(F)F)c4)ccc3N3CC[C@H]2C3)cc1 [Example 429]	Tryp AVG EC1.5 (μM) [2]: B (B (EC1.5 1-25 μM))
A (A (EC1.5<1 μM))	> 150%		CCc1cc(-c2ccc3c(n2)N(C(=O)Nc2cnccn2)[C@H]2CCN3C2)ccn1 [(9S)-5-(2-ethylpyridin-4-yl)-N-(pyrazin-2-yl)-1,6,8-triazatricyclo[7.2.1.0 {2,7}]dodeca-2(7),3,5-triene-8-carboxamide]	
B (B (EC1.5 1-25 μM))	> 150%		C[C@@H]1COCCN1c1ccc2c(n1)N(C(=O)Nc1cccnc1)[C@H]1CCN2C1 [(9S)-5-[(3R)-3-methylmorpholin-4-yl]-N-(pyridin-3-yl)-1,6,8-triazatricyclo[7.2.1.0 {2,7}]dodeca-2(7),3,5-triene-8-carboxamide]	
B (B (EC1.5 1-25 μM))	> 150%		N#Cc1ccc(-c2ccc3c(n2)N(C(=O)Nc2cccnc2)[C@H]2CCN3C2)cn1 [(9S)-5-(6-cyanopyridin-3-yl)-N-(pyridin-3-yl)-1,6,8-triazatricyclo[7.2.1.0^2,7]dodeca-2,4,6-triene-8-carboxamide]	
		B (B (EC1.5 1-25 μM))	COc1cc(NC(=O)N2c3nc(-c4cccc(C(F)(F)F)c4)ccc3N3C[C@@H](O)[C@H]2C3)nc(OC)n1 [Example 664]	
B (B (EC1.5 1-25 μM))	> 150%		O=C(Nc1cccnc1)N1c2nc(-c3ccc(C(F)(F)F)nc3)ccc2N2CC[C@H]1C2 [(9S)-N-(pyridin-3-yl)-5-[6-(trifluoromethyl)pyridin-3-yl]-1,6,8-triazatricyclo[7.2.1.0^{2,7}]dodeca-2(7),3,5-triene-8-carboxamide]	
		B (B (EC1.5 1-25 μM))	O=C(Nc1ccccn1)N1c2nc(-c3cccc(Cl)c3)ccc2N2C[C@@H](O)[C@H]1C2 [Example 675]	

TRP Activity (EC1.5) (Trp peptide assay)	Emax [1]	Tryp AVG EC1.5 (μM) [4]	Compound	further results
		A (A (EC1.5<1 μM))	CC(C)(C)OC(=O)NCCCc1ccc(NC(=O)N2c3nc(-c4cccc(C(F)(F)F)c4)ccc3N3CC[C@H]2C3)cc1-c1cnco1 [Example 750]	
		B (B (EC1.5 1-25 μM))	CC(C)(C)c1nnc(NC(=O)N2c3nc(-c4cccc(C(F)(F)F)c4)ccc3N3CC[C@H]2C3)s1 [Example 649]	
			CC(C)(C)OC(=O)N1CCCc2ccc(NC(=O)N3c4nc(-c5cccc(C(F)(F)F)c5)ccc4N4CC[C@H]3C4)cc21 [Example 610]	Tryp AVG EC1.5 (μM) [2]: B (B (EC1.5 1-25 μM))
B (B (EC1.5 1-25 μM))	> 150%		Cc1ccc(-c2ccc3c(n2)N(C(=O)NC2CC(F)(F)C2)[C@H]2CCN3C2)cn1 [(9S)-N-(3,3-difluorocyclobutyl)-5-(6-methylpyridin-3-yl)-1,6,8-triazatricyclo[7.2.1.0 {2,7}]dodeca-2(7),3,5-triene-8-carboxamide]	
A (A (EC1.5<1 μM))			O=C(Nc1cnccn1)N1c2nc(N3CCO[C@H](C(F)(F)F)C3)ccc2N2CC[C@H]1C2 [drawing 1227, (9S)-N-(pyrazin-2-yl)-5-[(2S)-2-(trifluoromethyl)morpholin-4-yl]-1,6,8-triazatricyclo[7.2.1.0 {2,7}]dodeca-2(7),3,5-triene-8-carboxamide]	TRP MAX RESP (percent maximum fold activation) [1]: A (A (Fold activation ≧150%))
			O=C(Nc1ccncn1)N1c2nc(-c3cncc(F)c3)ccc2N2CCC1CC2 [Example 573]	Tryp AVG EC1.5 (μM) [2]: C (C (EC1.5>25 μM))
C (C (EC1.5>25 μM))	< 150%		Cc1cc(-c2ccc3c(n2)N(C(=O)N[C@@H](C)c2ccccn2)[C@H]2CCN3C2)ccn1 [(9S)-5-(2-methylpyridin-4-yl)-N-[(1S)-1-(pyridin-2-yl)ethyl]-1,6,8-triazatricyclo[7.2.1.0 {2,7}]dodeca-2,4,6-triene-8-carboxamide]	
			O=C(Nc1ccc2c(c1)OCCCO2)N1c2nc(-c3cccc(C(F)(F)F)c3)ccc2N2CC[C@H]1C2 [Example 95]	Tryp AVG EC1.5 (μM) [3]: A (A (EC1.5<1 μM))
		A (A (EC1.5<1 μM))	O=C(Nc1cccc(-c2cnco2)n1)N1c2nc(-c3cncc(F)c3)ccc2N2CC[C@H]1C2 [Example 739]	
		B (B (EC1.5 1-25 μM))	O=C(Nc1cccnc1)N1c2nc(-c3cncc(C(F)(F)F)c3)ccc2N2C[C@@H](O)[C@H]1C2 [Example 705]	
B (B (EC1.5 1-25 μM))			O=C(Nc1ccccn1)N1c2nc(N3CC[C@H](C(F)(F)F)C3)ccc2N2CCC[C@H]1C2 [drawing 1101, (9S)-N-(pyridin-2-yl)-5-[(3S)-3-(trifluoromethyl)pyrrolidin-1-yl]-1,6,8-triazatricyclo[7.3.1.0 {2,7}]trideca-2(7),3,5-triene-8-carboxamide]	
		A (A (EC1.5<1 μM))	O=C(Nc1cccc(-c2cnco2)c1)N1c2nc(-c3cccc(Cl)c3)ccc2N2C[C@@H](O)[C@H]1C2 [Example 683]	
		B (B (EC1.5 1-25 μM))	O=C(Nc1ccncn1)N1c2nc(-c3cncc(C(F)(F)F)c3)ccc2N2C[C@@H](O)[C@H]1C2 [Example 700]	
			O=C(Nc1cnccn1)N1c2nc(-c3cncc(Cl)c3)ccc2N2CCC1CC2 [Example 550]	Tryp AVG EC1.5 (μM) [2]: B (B (EC1.5 1-25 μM))
		A (A (EC1.5<1 μM))	O=C(Nc1cccc(-c2ccoc2)n1)N1c2nc(-c3cccc(C(F)(F)F)c3)ccc2N2CC[C@H]1C2 [Example 654]	
A (A (EC1.5<1 μM))	> 150%		Cc1cc(-c2ccc3c(n2)N(C(=O)Nc2ccc4[nH]ncc4n2)[C@H]2CCN3C2)ccn1 [(9S)-5-(2-methylpyridin-4-yl)-N-{1H-pyrazolo[4,3-b]pyridin-5-yl}-1,6,8-triazatricyclo[7.2.1.0 {2,7}]dodeca-2(7),3,5-triene-8-carboxamide]	
B (B (EC1.5 1-25 μM))	> 150%		O=C(Nc1cnccn1)N1c2nc(N3CCOC(C4CC4)C3)ccc2N2CC[C@H]1C2 (stereo partly drawn) [(9S)-5-(2-cyclopropylmorpholin-4-yl)-N-(pyrazin-2-yl)-1,6,8-triazatricyclo[7.2.1.0 {2,7}]dodeca-2,4,6-triene-8-carboxamide]	
